20 compounds from US7410975B2, “Small molecule toll-like receptor (TLR) antagonists” (Coley Pharmaceutical Group, Inc., priority 2003, dated 2008) can be followed below.

What all share (type): cell-based
Experiment [1] has as its target T1, human TLR9 (hTLR9) (Homo sapiens, UniProt Q9NR96).
T1 construct: expressed in transfected cells
T1 sequence (Q9NR96 26-1032): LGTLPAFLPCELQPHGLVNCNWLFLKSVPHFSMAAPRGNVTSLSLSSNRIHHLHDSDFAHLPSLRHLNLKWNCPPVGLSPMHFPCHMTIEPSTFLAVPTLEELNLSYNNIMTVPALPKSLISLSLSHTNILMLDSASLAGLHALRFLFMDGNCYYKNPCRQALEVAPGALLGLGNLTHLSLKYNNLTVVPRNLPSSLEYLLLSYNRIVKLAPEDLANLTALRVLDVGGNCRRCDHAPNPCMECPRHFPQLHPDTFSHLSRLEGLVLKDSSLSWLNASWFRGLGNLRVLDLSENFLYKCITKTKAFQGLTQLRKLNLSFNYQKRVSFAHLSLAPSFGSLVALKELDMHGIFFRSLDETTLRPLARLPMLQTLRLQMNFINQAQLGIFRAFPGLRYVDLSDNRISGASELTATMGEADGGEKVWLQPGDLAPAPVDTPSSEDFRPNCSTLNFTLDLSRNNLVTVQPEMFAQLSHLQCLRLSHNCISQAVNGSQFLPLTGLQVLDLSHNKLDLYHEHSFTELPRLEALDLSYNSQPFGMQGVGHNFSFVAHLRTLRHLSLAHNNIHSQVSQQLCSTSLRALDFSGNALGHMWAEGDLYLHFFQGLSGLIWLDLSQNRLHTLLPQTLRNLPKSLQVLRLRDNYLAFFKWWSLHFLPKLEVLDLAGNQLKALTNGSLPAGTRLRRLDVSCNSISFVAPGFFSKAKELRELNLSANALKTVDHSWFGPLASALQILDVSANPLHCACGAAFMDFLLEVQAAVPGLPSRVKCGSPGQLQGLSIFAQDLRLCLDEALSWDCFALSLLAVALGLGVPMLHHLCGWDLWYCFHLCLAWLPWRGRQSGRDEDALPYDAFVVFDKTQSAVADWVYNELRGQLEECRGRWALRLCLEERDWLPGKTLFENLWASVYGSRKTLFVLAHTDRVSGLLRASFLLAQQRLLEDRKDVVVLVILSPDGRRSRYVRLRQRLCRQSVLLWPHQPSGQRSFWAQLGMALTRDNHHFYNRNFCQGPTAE
On the procedure:
Stably co-transfecting the human TLR9 receptor (hTLR9) and an NF-κB promoter-driven luciferase gene into HEK-293 cells created the cell line hTLR9-NFkB-293. hTLR9-NFkB-293 cells were counted and seeded at 1.5×10^4 cells per well in 96-well cell culture plates one day before assaying and cultured at 37° C./5% CO2. The day of the assay, antagonist was added at 50 μM, 5.0 μM or 0.5 μM. The cells were then stimulated with the EC50 dose of the TLR9 agonist, CpG-ODN 2006, and cultured for 16 h in a humidified incubator at 37° C. The culture supernatant was removed and the cells were treated with lysis buffer and stored at −80° C. before measuring luciferase activity. The luciferase readout was measured according to manufacturer's instructions using a luciferase assay system available from Promega, USA. The antagonist dose listed in Table 18 is the minimum effective dose (μM) for blockade of the TLR9 agonist. As evident from the results presented in Table 18, the minimum effective dose (μM) for blockade of the TLR9 agonist was 0.5 μM or 5 μM for all of the compounds tested, as measured by this three-point assay.

In the next experiment the target is T2, hTLR9 (Homo sapiens, UniProt Q9NR96).
T2 construct: expressed in transfected cells
T2 sequence (Q9NR96 26-1032): T1 sequence (Q9NR96 26-1032)
Nature of the experiment: hTLR9 antagonism IC50, hTLR9-NFkB-293 cells, luciferase readout, CpG-ODN 2006 (Examples 8 and 18, Tables 19 and 20). The conditions noted are these: for inhibition of TLR9 signaling in vitro (in words): CpG-ODN 2006. On the procedure: (§1) hTLR9-NFkB-293 cells were counted and seeded at 1.5×10^4 cells per well in 96-well cell culture plates one day before assaying and cultured at 37° C./5% CO2, as described in Example 7. The day of the assay, antagonist was added at varying concentrations starting at 50 μM with a 1/5 to 1/6 dilution for 7 steps. The cells were then stimulated with the EC50 dose of the TLR9 agonist, CpG-ODN 2006, and cultured for 16 h in a humidified incubator at 37° C. The culture supernatant was removed and the cells were treated with lysis buffer and stored at −80° C. before measuring luciferase activity as described in Example 7. […] Results shown in Table 19 under the heading hTLR9 are the IC50 dose (μM) for blockade of a CpG ODN-generated signal in hTLR9-NFkB-293 cells.
as §1, with “20” for “19”

Experiment [2] deals with T1, human TLR9 (hTLR9). The experiment in a line: Antagonist screen, hTLR9-NFκB-293 cells, 6× NF-κB-luciferase reporter, with EC50 of CpG ODN 2006. The conditions noted are these: compound at 0.5, 5, 50 μg/ml; EC50 concentration of CpG ODN 2006; 16 h; NF-κB-luciferase. The method, then:
Candidate small molecules for initial screening were obtained from a commercially available library of 880 off-patent small molecules selected for structural diversity and proven bioavailability in humans (Prestwick Chemical Library). […] Results were measured as fold induction over baseline luciferase activity measured in the absence of ODN 2006 and compared to fold induction over baseline in the presence of the EC50 concentration of ODN 2006 alone. […] Additional screening was performed in like manner using additional small molecules selected from another library or specifically prepared for this purpose.
The method is described in greater detail as follows. The cells for each individual cell clone (hTLR3-NFκB-293, hTLR7-NFκB-293, hTLR8-NFκB-293 and hTLR9-NFκB-293) were counted and seeded one day before the stimulation at 1.5×10^4 cells per well in 96-well cell culture plates. To become adherent the cells were incubated after seeding overnight at 37° C. in 5% CO2 humidified air.
The screen for each compound was performed at the same time for all of the receptors TLR3, TLR7, TLR8 and TLR9. Up to fifteen test compounds, each assayed in duplicate at each of three different final concentrations (0.5 μg/ml, 5 μg/ml, and 50 μg/ml), were used for 16 h cell stimulation on a single multiwell culture plate. A 4× final concentration master plate was created to prepare the different test compounds before they were added to the cells.
Controls were added as duplicates individually for each cell clone on the cell culture plate. Positive controls were used as follows (final concentrations): 50 μg/ml poly(I:C) for hTLR3-NFκB-293; 8 μM resiquimod (R848) for hTLR7-NFκB-293; 30 μM R848 for hTLR8-NFκB-293; and 2.5 μM CpG-ODN 2006 for hTLR9-NFκB-293. Media alone was used as negative control. After addition of controls and small molecules, the cell clones were additionally stimulated with the EC50 concentration of the appropriate receptor-specific ligand.
The mean value of wells H2 and H5 (each with cells and EC50 concentration of the appropriate receptor-specific ligand) divided by the mean of wells H3 and H6 (each with cells alone) yielded the baseline response (i.e., fold induction of luciferase activity) to EC50 concentration of the appropriate receptor-specific ligand.
After 16 h stimulation the supernatant was removed and the cells treated with lysis buffer and stored at −80° C. before measuring.
For each screen result a graphical documentation was performed.
The baseline result (measured with addition of the EC50 concentration of the receptor-specific ligand) for each cell culture plate was measured as described above. Antagonistic effects were measured by down regulation compared to the baseline. Antagonists were scored as follows: • 13: compounds for which there was clear down regulation at 0.5 μg/ml, 5 μg/ml, and 50 μg/ml; • 12: compounds for which there was clear down regulation at 5 μg/ml and 50 μg/ml; • 11: compounds for which there was clear down regulation only at 50 μg/ml; • —: compounds for which there was no clear down regulation even at 50 μg/ml. Agonists

Where [3] appears, read: three-point assay at 50, 5.0 or 0.5 μM, EC50 dose of CpG-ODN 2006, 16 h.
Where [4] appears, read: hTLR9-NFkB-293 cells, EC50 dose of CpG-ODN 2006, 16 h, Table 19 quinazolines, read-out: hTLR9 (IC50 dose for blockade of a CpG ODN-generated signal).
Where [5] appears, read: hTLR9-NFkB-293 cells, EC50 dose of CpG-ODN 2006, 16 h, Table 20 diarylmethanes, read-out: hTLR9 (IC50 dose for blockade of a CpG ODN-generated signal).

The term IC50 denotes the concentration at which inhibition is half-maximal.

The structures appear in SMILES notation. Read-outs that look alike come from different tables or passages of the source.

Turning to `Cc1ccc2nc3c(c(N)c2c1)CCN3c1ccccc1` [1552(127), 6-Methyl-1-phenyl-2,3-dihydro-1H-pyrrolo[2,3-b]quinolin-4-ylamine], the “antagonist dose (minimum effective dose for blockade of the TLR9 agonist)” value (“antagonist dose” below) at human TLR9 (hTLR9) [1] (setting [3]) stood at 0.5 µM. In the case of `CN(C)c1cc(N)c2ccccc2n1` [1553(128), N*2*,N*2*-Dimethyl-quinoline-2,4-diamine], the “antagonist dose” value on human TLR9 (hTLR9) [1] (setting [3]) stood at 0.5 µM. Regarding `CN(C)CCOc1nc(-c2ccccc2)nc2ccccc12` [CMZ 203-45, Dimethyl-[2-(2-phenyl-quinazolin-4-yloxy)-ethyl]-amine], the IC50 at hTLR9 (setting [4]) was determined as 29 µM.

`CN1CCN(c2ccc(C(O)c3ccccc3)cc2)CC1` (centres unmarked) [CMZ 203-84] came in with an IC50 against hTLR9 of 25.6 µM. Also, on hTLR9 (hTLR9-NFkB-293 cells), the “inhibition of TLR9 signaling in vitro (in words)” value (“inhibition of TLR9 signaling” below) is recorded as “found to inhibit TLR9 signaling”. For `CN(C)CCOC(c1ccccc1)c1ccc(N2CCN(C)CC2)cc1` (centres unmarked) [CMZ 203-85], the “inhibition of TLR9 signaling” value against hTLR9 (hTLR9-NFkB-293 cells) was “found to inhibit TLR9 signaling”. The IC50 at hTLR9 (setting [5]) turned out to be 0.372 µM. As for `CN1CCN(c2ccc(-c3nc(NCCN4CCOCC4)c4ccccc4n3)cc2)CC1` [CMZ 203-87], on hTLR9 (setting [4]), the IC50 was 0.02 µM. In turn, `CN1CCN(c2ccc(Cc3ccccc3)cc2)CC1` [CMZ 203-88-1] registered an IC50 against hTLR9 of 12 µM. Moreover, the “inhibition of TLR9 signaling” value at hTLR9 (hTLR9-NFkB-293 cells) was “found to inhibit TLR9 signaling”.

As to `CN1CCN(c2ccc(/C(=N\O)c3ccccc3)cc2)CC1` [CMZ 203-88], on hTLR9 (hTLR9-NFkB-293 cells), the “inhibition of TLR9 signaling” value was “found to inhibit TLR9 signaling”. On hTLR9 (setting [5]), the half-inhibitory concentration (IC50) came out at 11.6 µM. The corresponding values for `CN(C)CCNC(c1ccccc1)c1ccc(N2CCN(C)CC2)cc1` (centres unmarked) [CMZ 203-89] are “found to inhibit TLR9 signaling” and 0.241 µM. On to `COc1cc2nc(N3CCN(c4ccccc4)CC3)nc(N)c2cc1OC` [CMZ 203-90], for which, on hTLR9 (setting [4]), the concentration for half-maximal inhibition (IC50) amounted to 5.43 µM. Regarding `CN1CCN(c2ccc(C(c3ccccc3)N3CCN(C)CC3)cc2)CC1` (centres unmarked) [CMZ 203-91], at hTLR9 (hTLR9-NFkB-293 cells), the “inhibition of TLR9 signaling” value was “found to inhibit TLR9 signaling”. For the same compound, the IC50 on hTLR9 (setting [5]) came out at 3.95 µM. With `CN(C)CCCN1c2ccccc2CCc2ccccc21.Cl` [compound 72, Imipraminehydrochloride], the “hTLR9 (inhibitory effect, antagonist score)” value on human TLR9 (hTLR9) [2] is 13 (compounds for which there was clear down regulation at 0.5 μg/ml, 5 μg/ml, and 50 μg/ml).

In the case of `Cl.Nc1c2c(nc3ccccc13)CCCC2` [compound 329, 1,2,3,4-Tetrahydro-acridin-9-ylamine Tacrine hydrochloridehydrate, reference compound], the “antagonist dose” value on human TLR9 (hTLR9) [1] amounted to 5.0 µM. Regarding `Nc1c2c(nc3ccccc13)CCCCC2` [compound 936, 7,8,9,10-Tetrahydro-6H-cyclohepta[b]quinolin-11-ylamine], the “antagonist dose” value at human TLR9 (hTLR9) [1] (setting [3]) was 0.5 µM. On the same count and under the same terms, then `Nc1c2c(nc3ccccc13)CCC2` [compound 1061, 2,3-Dihydro-1H-cyclopenta[b]quinolin-9-ylamine], with 5.0 µM. Still for that read-out and setting: then `CC1(C)C=Cc2c(nc3ccccc3c2N)C1` [compound 1201, 3,3-Dimethyl-3,4-dihydro-acridin-9-ylamine], with 0.5 µM. Regarding `Cc1cc(C)c2c(N)c3cccc(C)c3nc2n1` [compound 1227, 2,4,9-Trimethyl-benzo[b][1,8]naphthyridin-5-ylamine], the “antagonist dose” value on human TLR9 (hTLR9) [1] (setting [3]) amounted to 5.0 µM.

With `CC1(C)Cc2nc3ccccc3c(N)c2C(O)C1` (centres unmarked) [compound 1286, 9-Amino-3,3-dimethyl-1,2,3,4-tetrahydro-acridin-1-ol], the “antagonist dose” value on human TLR9 (hTLR9) [1] (setting [3]) worked out at 5.0 µM.

Regarding `Cc1ccc2nc3nc4c(C)cccc4c(N)c3cc2c1` [compound 1595, 2,7-Dimethyl-dibenzo[b,g][1,8]naphthyridin-11-ylamine], the “antagonist dose” value at human TLR9 (hTLR9) [1] (setting [3]) stood at 0.5 µM. As to `CCOc1ccc2nc3cc(NCc4ccco4)ccc3c(N)c2c1` [compound 1674, 7-Ethoxy-N*3*-furan-2-ylmethyl-acridine-3,9-diamine], the “antagonist dose” value at human TLR9 (hTLR9) [1] (setting [3]) was determined as 5.0 µM.
